In ChEMBL document CHEMBL6109103, “Dodecapeptides derived from human cathelicidin with potent activity against carbapenem-resistant Acinetobacter baumannii” (Eur J Med Chem, 2025):
In brackets after ≈: the same amount, converted by molar mass. Positions of bridges follow the written chain, without caps; N, C: chain ends. Non-standard residues stand in square brackets, D forms with d. Residues, ends and D or L forms follow the SMILES beside them. S5 = C=CCCC[C@](C)(N)C(=O)O

Assays:
Assay type in all cases: functional
[1] = test system: Acinetobacter baumannii; assay: Antibacterial activity against multidrug-resistant Acinetobacter baumannii assessed as inhibition of bacterial growth incubated for 24 hrs by broth dilution assay
[2] = test system: Staphylococcus aureus; assay: Antibacterial activity against Methicillin-resistant Staphylococcus aureus ATCC 43300 assessed as inhibition of bacterial growth incubated for 24 hrs by broth dilution assay
[3] = test system: Staphylococcus aureus; assay: Antibacterial activity against Staphylococcus aureus […] assessed as inhibition of bacterial growth incubated for 24 hrs by broth dilution assay
[4] = test system: Acinetobacter baumannii; assay: Antibacterial activity against Acinetobacter baumannii ATCC 19606 assessed as inhibition of bacterial growth incubated for 24 hrs by broth dilution assay

Compound | MIC [1] [µg/mL] | MIC [2] [µg/mL] | MIC [3] [µg/mL] | MIC [4] [µg/mL]
CC[C@H](C)[C@@H]1NC(=O)[C@H](CCCCN)NC(=O)[C@H]([C@@H](C)CC)NC(=O)[C@H](CCCNC(=N)N)NC(=O)[C@@](C)(NC(=O)[C@@H](NC(=O)[C@@H](NC(=O)[C@H](CCCNC(=N)N)NC(=O)[C@@H](N)CCCCN)[C@@H](C)CC)C(C)C)CCC/C=C\CCC[C@@](C)(C(=O)O)NC(=O)[C@H](CC(C)C)NC(=O)[C@H](Cc2ccccc2)NC1=O (H-KRIV[S5]RIKIFL[S5]-OH; staple (Z) 5-12) | 40 (≈ 26 µM) | 80 (≈ 52.1 µM) | > 320 | 80 (≈ 52.1 µM)
CC[C@H](C)[C@@H]1NC(=O)[C@H](CCCNC(=N)N)NC(=O)[C@@](C)(NC(=O)[C@@H](NC(=O)[C@@H](NC(=O)[C@H](CCCNC(=N)N)NC(=O)[C@@H](N)CCCCN)[C@@H](C)CC)C(C)C)CCC/C=C\CCC[C@@](C)(C(=O)N[C@@H](Cc2ccccc2)C(=O)N[C@@H](CC(C)C)C(=O)N[C@@H](CCCNC(=N)N)C(=O)O)NC(=O)[C@H](CCCCN)NC1=O (H-KRIV[S5]RIK[S5]FLR-OH; staple (Z) 5-9) | 40 (≈ 25.3 µM) | > 320 | > 320 | 40 (≈ 25.3 µM)
H-KRIVRRIKKFLR-OH | 160 | > 320 | > 320 | 80
CC[C@H](C)[C@H](NC(=O)[C@H](CCCNC(=N)N)NC(=O)[C@@H](N)CCCCN)C(=O)N[C@H](C(=O)N[C@@H](CCCNC(=N)N)C(=O)N[C@@H](CCCNC(=N)N)C(=O)N[C@H](C(=O)N[C@@]1(C)CCC/C=C\CCC[C@@](C)(C(=O)O)NC(=O)[C@H](CC(C)C)NC(=O)[C@H](Cc2ccccc2)NC(=O)[C@H]([C@@H](C)CC)NC1=O)[C@@H](C)CC)C(C)C (H-KRIVRRI[S5]IFL[S5]-OH; staple (Z) 8-12) | 10 (≈ 6.39 µM) | 40 (≈ 25.6 µM) | 80 (≈ 51.1 µM) | 10 (≈ 6.39 µM)
CC[C@H](C)[C@@H]1NC(=O)[C@H](CCCNC(=N)N)NC(=O)[C@H](CCCNC(=N)N)NC(=O)[C@@](C)(NC(=O)[C@@H](NC(=O)[C@H](CCCNC(=N)N)NC(=O)[C@@H](N)CCCCN)[C@@H](C)CC)CCC/C=C\CCC[C@@](C)(C(=O)N[C@@H](CCCNC(=N)N)C(=O)O)NC(=O)[C@H](Cc2ccccc2)NC(=O)[C@H]([C@@H](C)CC)NC(=O)[C@H](CCCCN)NC1=O (H-KRI[S5]RRIKIF[S5]R-OH; staple (Z) 4-11) | > 320 | > 320 | > 320 | > 320
H-KRIVIRIKKFLR-OH | 40 | 320 | 160 | 80
CO/N=C(\C(=O)N[C@@H]1C(=O)N2C(C(=O)O)=C(COC(C)=O)CS[C@H]12)c1csc(N)n1 [CEFOTAXIME] | > 320 | > 320 | 2.5 (≈ 5.49 µM) | 20 (≈ 43.9 µM)
CC[C@H](C)[C@H](NC(=O)[C@H](CCCCN)NC(=O)[C@]1(C)CCC/C=C\CCC[C@](C)(NC(=O)[C@H](CCCNC(=N)N)NC(=O)[C@@H](N)CCCCN)C(=O)N[C@@H](C(C)C)C(=O)N[C@@H](CCCNC(=N)N)C(=O)N[C@@H](CCCNC(=N)N)C(=O)N1)C(=O)N[C@@H](Cc1ccccc1)C(=O)N[C@@H](CC(C)C)C(=O)N[C@@H](CCCNC(=N)N)C(=O)O (H-KR[S5]VRR[S5]KIFLR-OH; staple (Z) 3-7) | 40 (≈ 24.7 µM) | 160 (≈ 98.6 µM) | 160 (≈ 98.6 µM) | 320 (≈ 197 µM)
CC[C@H](C)[C@@H]1NC(=O)[C@H](CCCCN)NC(=O)[C@@](C)(NC(=O)[C@H](CCCNC(=N)N)NC(=O)[C@H](CCCNC(=N)N)NC(=O)[C@@H](NC(=O)[C@@H](NC(=O)[C@H](CCCNC(=N)N)NC(=O)[C@@H](N)CCCCN)[C@@H](C)CC)C(C)C)CCC/C=C\CCC[C@@](C)(C(=O)N[C@@H](CCCNC(=N)N)C(=O)O)NC(=O)[C@H](Cc2ccccc2)NC1=O (H-KRIVRR[S5]KIF[S5]R-OH; staple (Z) 7-11) | > 320 | > 320 | > 320 | > 320
O=C(O)c1cn(C2CC2)c2cc(N3CCNCC3)c(F)cc2c1=O [CIPROFLOXACIN] | 320 (≈ 966 µM) | 160 (≈ 483 µM) | 2.5 (≈ 7.54 µM) | 2.5 (≈ 7.54 µM)
H-KRIVRRIKDFLR-OH | 320 | > 320 | > 320 | 320
CC[C@H](C)[C@H](NC(=O)[C@H](CCCNC(=N)N)NC(=O)[C@@H](N)CCCCN)C(=O)N[C@H](C(=O)N[C@@H](CCCNC(=N)N)C(=O)N[C@@]1(C)CCC/C=C/CCC[C@@](C)(C(=O)N[C@@H](CC(C)C)C(=O)N[C@@H](CCCNC(=N)N)C(=O)O)NC(=O)[C@H]([C@@H](C)CC)NC(=O)[C@H](CCCCN)NC(=O)[C@H]([C@@H](C)CC)NC1=O)C(C)C (H-KRIVR[S5]IKI[S5]LR-OH; staple (E) 6-10) | 10 (≈ 6.47 µM) | 80 (≈ 51.8 µM) | 80 (≈ 51.8 µM) | 10 (≈ 6.47 µM)
H-NLVPRTES-OH | > 320 | > 320 | > 320 | > 320
CC[C@H](C)[C@@H]1NC(=O)[C@H](CCCNC(=N)N)NC(=O)[C@@](C)(N)CCC/C=C\CCC[C@@](C)(C(=O)N[C@H](C(=O)N[C@@H](Cc2ccccc2)C(=O)N[C@@H](CC(C)C)C(=O)N[C@@H](CCCNC(=N)N)C(=O)O)[C@@H](C)CC)NC(=O)[C@H]([C@@H](C)CC)NC(=O)[C@H](CCCNC(=N)N)NC(=O)[C@H](CCCNC(=N)N)NC(=O)[C@H](C(C)C)NC1=O (H-[S5]RIVRRI[S5]IFLR-OH; staple (Z) 1-8) | 40 (≈ 25.1 µM) | 160 (≈ 100 µM) | 320 (≈ 201 µM) | 80 (≈ 50.2 µM)
CC[C@H](C)[C@@H]1NC(=O)[C@H](CCCNC(=N)N)NC(=O)[C@H](CCCNC(=N)N)NC(=O)[C@H](C(C)C)NC(=O)[C@H]([C@@H](C)CC)NC(=O)[C@@](C)(NC(=O)[C@@H](N)CCCCN)CCC/C=C\CCC[C@@](C)(C(=O)N[C@@H](Cc2ccccc2)C(=O)N[C@@H](CC(C)C)C(=O)N[C@@H](CCCNC(=N)N)C(=O)O)NC(=O)[C@H](CCCCN)NC1=O (H-K[S5]IVRRIK[S5]FLR-OH; staple (Z) 2-9) | 160 (≈ 101 µM) | > 320 | > 320 | 320 (≈ 203 µM)
H-KRIVKRIKKFLR-OH | > 320 | 160 | > 320 | 160
H-KRIVQRIKRFLR-OH | 80 | > 320 | > 320 | 160
H-KRIVKRIKRFLR-OH | 80 | > 320 | > 320 | 80
H-KRIVQRIKKFLR-OH | 20 | > 320 | > 320 | 80
H-KRIVQRIKIFLR-OH | 20 | > 320 | 160 | 40
H-KRIVIRIKIFLR-OH | 20 | 80 | 40 | 20
H-LLGDFFRKSKEKIGKEF-OH | > 320 | > 320 | > 320 | > 320
CC[C@H](C)[C@H](NC(=O)[C@H](CCCCN)NC(=O)[C@@H](NC(=O)[C@]1(C)CCC/C=C\CCC[C@](C)(NC(=O)[C@@H](N)CCCCN)C(=O)N[C@@H]([C@@H](C)CC)C(=O)N[C@@H](C(C)C)C(=O)N[C@@H](CCCNC(=N)N)C(=O)N1)[C@@H](C)CC)C(=O)N[C@@H](Cc1ccccc1)C(=O)N[C@@H](CC(C)C)C(=O)N[C@@H](CCCNC(=N)N)C(=O)O (H-K[S5]IVR[S5]IKIFLR-OH; staple (Z) 2-6) | 10 (≈ 6.51 µM) | 320 (≈ 208 µM) | 320 (≈ 208 µM) | 10 (≈ 6.51 µM)
H-KRIVKRIKDFLR-OH | 80 | > 320 | > 320 | 160
H-KRIVIRIKDFLR-OH | 80 | > 320 | > 320 | 160
H-KRIVKRIKIFLR-OH | 10 | > 320 | 80 | 20
H-KRIVIRIKRFLR-OH | 10 | 80 | 160 | 20
H-KRIVRRIKRFLR-OH | 320 | > 320 | > 320 | 320
CC[C@H](C)[C@@H]1NC(=O)[C@H](CCCNC(=N)N)NC(=O)[C@H](CCCNC(=N)N)NC(=O)[C@H](C(C)C)NC(=O)[C@@](C)(NC(=O)[C@H](CCCNC(=N)N)NC(=O)[C@@H](N)CCCCN)CCC/C=C/CCC[C@@](C)(C(=O)N[C@@H](CC(C)C)C(=O)N[C@@H](CCCNC(=N)N)C(=O)O)NC(=O)[C@H]([C@@H](C)CC)NC(=O)[C@H](CCCCN)NC1=O (H-KR[S5]VRRIKI[S5]LR-OH; staple (E) 3-10) | 10 (≈ 6.3 µM) | 80 (≈ 50.4 µM) | 80 (≈ 50.4 µM) | 20 (≈ 12.6 µM)
CC[C@H](C)[C@H](NC(=O)[C@H](CCCCN)NC(=O)[C@@H](NC(=O)[C@H](CCCNC(=N)N)NC(=O)[C@]1(C)CCC/C=C/CCC[C@](C)(N)C(=O)N[C@@H](CCCNC(=N)N)C(=O)N[C@@H]([C@@H](C)CC)C(=O)N[C@@H](C(C)C)C(=O)N1)[C@@H](C)CC)C(=O)N[C@@H](Cc1ccccc1)C(=O)N[C@@H](CC(C)C)C(=O)N[C@@H](CCCNC(=N)N)C(=O)O (H-[S5]RIV[S5]RIKIFLR-OH; staple (E) 1-5) | 10 (≈ 6.39 µM) | 160 (≈ 102 µM) | 160 (≈ 102 µM) | 10 (≈ 6.39 µM)
